Assay results reported in US12077501B2, “Compounds and compositions for intracellular delivery of agents” (ModernaTX, Inc., priority 2017, dated 2024).

Experiments:
hEPO expression [1] = test: hEPO expression in CD-1 mice compared with MC3; assay type: in vivo; settings: intravenous, 0.5 mpk, Table 7e
Description: In contrast, hEPO expression in rats induced by administration of a nanoparticle composition including a compound according to one of formulae (I), (Ia1)-(Ia6), (Ib), (II), (IIa), (III), and (IIIa) was substantially […] than that measured for MC3. […] Tables 7c and 7d show additional protein expressions and clearance data from compositions with various compounds disclosed herein as compared to with MC3. Tables 7e, 7f and 7g show hEPO expression data in CD-1 mice at a dose of 0.5 mpk.

[2] = pKa of nanoparticle compositions; assay type: physicochemical; settings: Table 1b
[3] = Particle size and polydispersity index of nanoparticle compositions (Zetasizer Nano ZS); assay type: physicochemical; settings: Table 1d, Formulated with lipid:Chol:DOPE:PEG 1 40:38.5:20:1.5
Method: A Zetasizer Nano ZS (Malvem Instruments Ltd, Malvem, Worcestershire, UK) can be used to determine the particle size, the polydispersity index (PDI) and the zeta potential of the nanoparticle compositions in 1×PBS in determining particle size and 15 mM PBS in determining zeta potential.

[4] = Encapsulation efficiency of RNA (QUANT-IT RIBOGREEN RNA assay); assay type: physicochemical; settings: Table 1d, Formulated with lipid:Chol:DOPE:PEG 1 40:38.5:20:1.5
Method: For nanoparticle compositions including an RNA, a QUANT-IT™ RIBOGREEN® RNA assay (Invitrogen Corporation Carlsbad, CA) can be used to evaluate the encapsulation of an RNA by the nanoparticle composition. The samples are diluted to a concentration of approximately 5 μg/mL in a TE buffer solution (10 mM Tris-HCl, 1 mM EDTA, pH 7.5). 50 μL of the diluted samples are transferred to a polystyrene 96 well plate and either 50 μL of TE buffer or 50 μL of a 2% Triton X-100 solution is added to the wells. The plate is incubated at a temperature of 37° C. for 15 minutes. The RIBOGREEN® reagent is diluted 1:100 in TE buffer, and 100 μL of this solution is added to each well. The fluorescence intensity can be measured using a fluorescence plate reader (Wallac Victor 1420 Multilablel Counter; Perkin Elmer, Waltham, MA) at an excitation wavelength of, for example, about 480 nm and an emission wavelength of, for example, about 520 nm. The fluorescence values of the reagent blank are subtracted from that of each of the samples and the percentage of free RNA is determined by dividing the fluorescence intensity of the intact sample (without addition of Triton X-100) by the fluorescence value of the disrupted sample (caused by the addition of Triton X-100).

hEPO expression [5] = test: hEPO (miR126 + miR142) mRNA expression, Tables 8b-8e; assay type: in vivo; settings: Table 8b

Row | SMILES | AUC (p/s*h) CD-1 mice 0.5 mpk (hEPO expression [1]) [p/s*h] | pKa [2] | other results
1 | CCCCCCCCCN(CCCCCCCCC)CCN(CCCCCCCCC)CC(=O)N1CCN(C(=O)CN(CCCCCCCCC)CCCC(=O)OCCCCC)CC1 [Compound 45, Pentyl 4-((2-(4-(N-(2-(dinonylamino)ethyl)-N-nonylglycyl)piperazin-1-yl)-2-oxoethyl)(nonyl)amino)butanoate] | 6.98E+07 | – | –
2 | CCCCCCCCCN(CCCCCCCCC)CCC1CCN(C(=O)CN(CCCCCCCCC)CCN(CCCCCCCCC)CCCCCCCCC)CC1 [Compound 49, 2-((2-(Dinonylamino)ethyl)(nonyl)amino)-1-(4-(2-(dinonylamino)ethyl)piperidin-1-yl)ethan-1-one] | 1.59E+08 | – | –
3 | CCCCCCCCCN(CCCCCCCCC)CCC(=O)N1CCN(C(=O)CCN(CCCCCCCCC)CCN(CCCCCCCCC)CCCCCCCCC)CC1 [Compound 52, 3-(Dinonylamino)-1-(4-(3-((2-(dinonylamino)ethyl)(nonyl)amino)propanoyl)piperazin-1-yl)propan-1-one] | 7.78E+07 | – | –
4 | CCCCCCCCCN(CCCCCCCCC)CCN(CCCCCCCCC)CC(=O)N1CCN(C(=O)CN(CCCCCCCCC)CCCOC(=O)CCCCC)CC1 [Compound 56, 3-((2-(4-(N-(2-(Dinonylamino)ethyl)-N-nonylglycyl)piperazin-1-yl)-2-oxoethyl)(nonyl)amino)propyl hexanoate] | 4.52E+07 | 6.94 | –
5 | CCCCCCCCCN(CCCCC(=O)OCCCC)CCC1CCN(C(=O)CN(CCCCCCCCC)CCN(CCCCCCCCC)CCCCCCCCC)CC1 [Compound 60, Butyl 5-((2-(1-(N-(2-(dinonylamino)ethyl)-N-nonylglycyl)piperidin-4-yl)ethyl)(nonyl)amino)pentanoate] | 4.86E+07 | 6.66 | –
6 | CCCCCCCCCN(CCCOC(=O)CCCCC)CCC1CCN(C(=O)CN(CCCCCCCCC)CCN(CCCCCCCCC)CCCCCCCCC)CC1 [Compound 61, 3-((2-(1-(N-(2-(Dinonylamino)ethyl)-N-nonylglycyl)piperidin-4-yl)ethyl)(nonyl)amino)propyl hexanoate] | 6.29E+07 | 6.61 | –
7 | CCCCCCCCCN(CCCC(=O)OCCCCC)CCN(CCCCCCCCC)CC(=O)N1CCN(C(=O)CN(CCCCCCCCC)CCCC(=O)OCCCCC)CC1 [Compound 71, Pentyl 4-(nonyl(2-(4-(N-nonyl-N-(2-(nonyl(4-oxo-4-(pentyloxy)butyl)amino)ethyl)glycyl)piperazin-1-yl)-2-oxoethyl)amino)butanoate] | 2.48E+07 | 6.44 | –
8 | CCCCCCCCCN(CCCCCCCCC)CCN(CCCCCCCCC)CC(=O)N(C)CCCCN(C)C(=O)CN(CCCCCCCCC)CCCCCCCCC [Compound 159, 2-(dinonylamino)-N-(4-(2-((2-(dinonylamino)ethyl)(nonyl)amino)-N-methylacetamido)butyl)-N-methylacetamide] | – | – | PDI [3]: 0.12; Size (nm) [3]: 76.5 nm; EE (%) [4]: 92.9%; AUC (hEPO expression [5]): 6.56e+07 pg·h/mL
